Activity calls are given as the source filed them.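 Rule for the calls: active = fitted half-maximal concentration for changing background-corrected GFP signal at or below a set limit; inactive = the rest.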
assay: TOR pathway reporter MEP2-GFP, concentration series – S. cerevisiae, flow cytometry GFP, MLPCN hits, dose response (AID 2742);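 note: GFP tag reports level of MEP2 protein as a downstream target of TOR signalling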; conditions: S. cerevisiae MEP2-GFP strain, flow cytometry fluorescence, 3 h; at 33 µM (top of the series)

Row | SMILES | GFP fluorescence (kMESF), higher = increase
1 | O=C(Nc1ccc(Cl)cc1)ON=C1CCCC1 | 4.17 kMESF (inactive)
2 | Cc1nn(C)c(C)c1N1C(=O)c2cccc3c(Br)ccc(c23)C1=O | 3.61 kMESF (inactive)
3 | Fc1cccc(Nc2ncnc3c2cnn3-c2ccccc2)c1 | 2.97 kMESF (inactive)
4 | CC(=O)OC[C@]12CC[C@H]3[C@@](C)(CC[C@H]4C(C)(C)CCC[C@]34C)[C@@H]1C[C@H](C1=CC(=O)O[C@@H]1OC(C)=O)O2 | 1.79 kMESF (inactive)
5 | COc1cc(CNC(=O)CCCCCCC(C)C)ccc1O | 2.32 kMESF (inactive)
6 | COc1ccc(/C=C2/C(=O)ON=C2c2ccccc2)cc1OC | 4.51 kMESF (inactive)
7 | CCOC(=O)Cn1cc(/C=C/[N+](=O)[O-])c2ccccc21 | 4.22 kMESF (inactive)
8 | O=C(/C=C/c1ccnc2ccccc12)c1cccs1 | 4.23 kMESF (inactive)
9 | COc1cc(/C=C2\CC/C(=C\c3cc(OC)c(O)c(OC)c3)C2=O)cc(OC)c1O | 3.25 kMESF (inactive)
10 | O=C(/C=C/c1ccccn1)c1cc(Br)ccc1O | 4.38 kMESF (inactive)
11 | O=[N+]([O-])c1cc(S(=O)(=O)C(F)(F)F)ccc1Sc1nc2ccccc2s1 | 4.67 kMESF (inactive)
12 | O=C(O)c1ccn2c(C(=O)c3ccccc3)c(-c3ccccc3)cc2c1 | 3.13 kMESF (inactive)
13 | O=C(Nc1nnc(-c2ccc(Cl)cc2)o1)c1ccccc1Br | 4.01 kMESF (inactive)
14 | Cc1cc(S(=O)(=O)ON2C(=O)c3ccccc3C2=O)ccc1F | 4.9 kMESF (inactive)
15 | O=C(Oc1ccnc2cc(Cl)ccc12)N1CCOCC1 | 2.97 kMESF (inactive)
16 | CCOC(=O)c1ccc(N=Cc2nc(-c3ccccc3)oc2OC(C)=O)cc1 | 5.65 kMESF (inactive)
17 | O=C(CCc1ccccc1)NNC(=S)NC(=O)c1ccccc1 | 5.56 kMESF (inactive)
18 | COc1ccc([N+](=O)[O-])c(S(=O)(=O)c2ccc(Cl)cc2)n1 | 4.42 kMESF (inactive)
19 | Cc1ccc2[nH]cc(/C=C/c3cc[n+](C)cc3)c2c1 | 4.2 kMESF (inactive)
20 | COc1ccc(C(=O)/C=C2/C(=O)Nc3ccccc32)cc1 | 4.25 kMESF (inactive)
21 | Cc1ccccc1C(=O)NNC(=S)NC(=O)c1ccc(Cl)cc1Cl | 6.21 kMESF (inactive)

Row | SMILES | GFP fluorescence (kMESF), higher = increase
22 | CN(C)NC(=S)Nc1ccc(S(=O)(=O)N2CCCCC2)cc1 | 1.92 kMESF (inactive)
23 | Oc1ccc(CNc2ccccc2)c2cccnc12 | 3.28 kMESF (inactive)
24 | Cc1cc(NC(c2ccc(Cl)cc2)c2ccc3cccnc3c2O)no1 (stereo unspecified) | 4.11 kMESF (inactive)
25 | CC(=O)[C@]1(O)Cc2c(O)c3c(c(O)c2[C@@H](O[C@H]2C[C@H](N)[C@H](O)[C@H](C)O2)C1)C(=O)c1ccccc1C3=O | 4.71 kMESF (inactive)
26 | O=c1c(-c2ccc(Cl)cc2)[n+]([O-])c2ccccc2n1O | 24.9 kMESF (inactive)
27 | Cc1ccc(NC(=O)ON=C2CCCC2)cc1 | 3.26 kMESF (inactive)
28 | Cc1ccc(/C=c2\sc3nc(-c4cccs4)nn3c2=O)o1 | 8.12 kMESF (inactive)
29 | COc1ccc(CCNC2=C(Cl)C(=O)N(CCc3ccccc3)C2=O)cc1OC | 2.6 kMESF (inactive)
30 | CCOc1ccc(C(Nc2cccnc2)c2cc(Cl)c3cccnc3c2O)cc1 (stereo unspecified) | 4.24 kMESF (inactive)
31 | O=C1c2cccc3c([N+](=O)[O-])ccc(c23)C(=O)N1c1ccccn1 | 12.2 kMESF (inactive)
32 | O=C(CSC1=NS(=O)(=O)c2ccccc21)Nc1ccccc1 | 2.66 kMESF (inactive)
33 | Cc1cccc(NC(c2ccc(C)s2)c2ccc3ccc(C)nc3c2O)n1 (stereo unspecified) | 8.62 kMESF (inactive)
34 | CC(=O)Oc1ccc(N2C(=O)C3C4C=CC(O4)C3C2=O)cc1 (stereo unspecified) | 3.13 kMESF (inactive)
35 | CCC(=O)Oc1oc(-c2ccccc2)nc1C=Nc1ccc(C)cc1 | 3.2 kMESF (inactive)
36 | Cc1c(Br)c(=O)oc2c(Br)c(O)c(O)cc12 | 2.07 kMESF (inactive)
37 | CCN(CC(=O)NC(C)(C)C)C(=O)COc1c(Cl)cc(Cl)c2ccc(C)nc12 | 6.41 kMESF (inactive)
38 | CC(C)[C@@]1(c2ccc(Cl)cc2)ON(c2ccccc2C(F)(F)F)C1=O | 2.87 kMESF (inactive)
39 | CCOC(=O)CSC1=NC(=O)/C(=C/c2ccc(OC)cc2)S1 | 1.26 kMESF (inactive)
40 | O=C1c2ccccc2C(=O)C2OC12 (stereo unspecified) | 3.37 kMESF (inactive)
41 | CC(=O)Oc1ccc(/C=c2\sc3ncnn3c2=O)cc1 | 3.91 kMESF (inactive)
42 | COc1cc(/C=C/[N+](=O)[O-])ccc1O | 3.88 kMESF (inactive)

Row | SMILES | GFP fluorescence (kMESF), higher = increase
43 | CCN1/C(=C/C=C/c2sc3ccccc3[n+]2CC)Sc2ccccc21 | 105 kMESF (inactive)
44 | CC(=O)NN1C(=O)/C(=C/c2ccc(Br)o2)SC1=S | -0.17 kMESF (inactive)
45 | COc1cc(/C=C2\C(=O)ON=C2c2ccccc2)cc(OC)c1OC | 3.21 kMESF (inactive)
46 | O=C(O)c1cccc(S(=O)(=O)Nc2ccc(S(=O)(=O)N3CCOCC3)cc2)c1 | 2.77 kMESF (inactive)
47 | O=C1NC(=S)NC(=O)C1=Cc1ccc2c(c1)CCN2CCCCl | 4.18 kMESF (inactive)
48 | O=C1C(=O)c2ccccc2-c2ccccc21 | 2.76 kMESF (inactive)
49 | O=C(Nc1cccc(-c2csc(Nc3ccccc3)n2)c1)c1ccccc1 | 2.61 kMESF (inactive)
50 | CC(=O)N(C(C)=O)c1ncnc2c1c(-c1ccc(Cl)cc1)nn2C(C)(C)C | 1.85 kMESF (inactive)
51 | Cc1sc(/C=C2\C(=O)ON=C2c2ccccc2)cc1Br | 1.67 kMESF (inactive)
52 | Cc1ccc(NC(=O)c2cc(N3C(=O)C=CC3=O)ccc2N2CCOCC2)cc1Cl | 1.96 kMESF (inactive)
53 | O=C(c1ccc(Cl)c([N+](=O)[O-])c1)N1CCN(c2ccccc2)CC1 | 2.46 kMESF (inactive)
54 | Cc1cccnc1Nc1nc(-c2ccccn2)cs1 | 2.08 kMESF (inactive)
55 | COc1cc(N=c2ssnc2Cl)cc(OC)c1 | 4.07 kMESF (inactive)
56 | Cc1cccc2c1NC(=O)/C2=C\C(=O)c1cccs1 | 4.26 kMESF (inactive)
57 | Cc1[nH][nH]c(=O)c1C(c1ccc(-c2ccc(Cl)cc2)o1)c1c(C)[nH][nH]c1=O | 3.72 kMESF (inactive)
58 | Clc1cnc(N/N=C/c2cccs2)c(Cl)c1 | 2.89 kMESF (inactive)
59 | Cc1[nH][nH]c(=O)c1C(c1ccc(-c2ccc(Cl)c(Cl)c2)o1)c1c(C)[nH][nH]c1=O | 4.42 kMESF (inactive)
60 | CC(=O)Oc1ccc(N2C(=O)C3C4C=CC(CO)(O4)C3C2=O)cc1 (stereo unspecified) | 3.1 kMESF (inactive)
61 | CC(OC(=O)c1ccco1)C(=O)Nc1nc(-c2ccccc2)cs1 (stereo unspecified) | 2.67 kMESF (inactive)
